# Data taken from paper PMC8038958 (The AAPS Journal, 2021).
# Assay: Population pharmacokinetic analysis (NONMEM, two-compartment model) of vancomycin serum concentrations from routine TDM
# [1] = structural base model without covariates, estimate (RSE %)
smiles,measurement,setting,value
CN[C@H](CC(C)C)C(=O)N[C@H]1C(=O)N[C@@H](CC(N)=O)C(=O)N[C@H]2C(=O)N[C@H]3C(=O)N[C@H](C(=O)N[C@H](C(=O)O)c4cc(O)cc(O)c4-c4cc3ccc4O)[C@H](O)c3ccc(c(Cl)c3)Oc3cc2cc(c3O[C@@H]2O[C@H](CO)[C@@H](O)[C@H](O)[C@H]2O[C@H]2C[C@](C)(N)[C@H](O)[C@H](C)O2)Oc2ccc(cc2Cl)[C@H]1O [Vancomycin],estimated exponent of TBW on V1 and V2,"alternative model with power function instead of linear TBW, not retained",1.05
same,CL,"structural base model without covariates, 1892 children 1-18 years, normal weight, overweight, obese, intermittent i.v. infusion, estimate (RSE %)",2.17 (2) L/h
same,Q (inter-compartmental clearance between V1 and V2),[1],2.24 (4) L/h
same,V1 (volume of distribution of central compartment),[1],5.27 (8) L
same,V2 (volume of distribution of the peripheral compartment),[1],11.9 (8) L
